This note sets out measurements from patent US20230172971A1, “ANTIBIOTIC AND ANTI-INFLAMMATORY COMPOSITIONS AND METHODS OF USE” (priority 2020, published 2023).

For assay [1], the system named is PA OU19. Nature of the assay: MicroScan Walkaway MIC panel, PA OU19. The assay is classed as cell-based, P. aeruginosa.
For assay [2], the system named is MRSA OU6. Nature of the assay: MicroScan Walkaway MIC panel, MRSA OU6. The assay is classed as cell-based, Staphylococcus aureus. The following applies: for MIC: Staphylococcus aureus. The text has this: (§1) The multi-drug resistance characteristics of the clinical isolates was confirmed using the Beckman Coulter MicroScan Walkaway™ 96plus with the PC33 gram positive panel. The MIC values are listed below.

The test system of assay [3] is MRSA OU11. Put plainly: MicroScan Walkaway MIC panel, MRSA OU11. Format: cell-based, Staphylococcus aureus. The following applies: for MIC: Staphylococcus aureus.
Excerpt: as §1

In assay [4] the test system is MRSA OU6. Put plainly: Checkerboard assay erythromycin + 600-Da BPEI, MRSA OU6. Format: cell-based, Staphylococcus aureus. The following applies: for MIC Antibiotic: MRSA OU6, antibiotic alone. As for the experimental part: (§2) Checkerboard assays were conducted to identify synergy between BPEI and antibiotics against bacteria. Serial dilutions of antimicrobial agents (BPEI and antibiotic solutions) were added to a 96-well microtiter plate with 100 μL CAMHB per well. Untreated control and positive control (5% bleach) were also conducted. Bacterial inoculation (5×10^5 CFU/mL) from an overnight culture was added to the plate (1 μL/well) and incubated at 37° C. for 20 hr. The change in optical density at 600 nm (ΔOD600) was measured using a Tecan Infinite M20 plate reader immediately after inoculation Minimum inhibitory concentration (MIC) of each drug is determined as the lowest concentration that inhibited cell growth (ΔOD600<0.05). Fractional inhibitory concentration index (FICI) and synergistic effects are determined using EUCAST guidelines: synergy (FICI≤0.5), additivity (0.5<FICI<1), and indifference (FICI>1). Each assay was done in triplicate.

The test system of assay [5] is MRSA OU11. Nature of the assay: Checkerboard assay erythromycin + 600-Da BPEI, MRSA OU11. The assay is classed as cell-based, Staphylococcus aureus. Conditions: for MIC Antibiotic: MRSA OU11, antibiotic alone. The protocol:
as §2

The test system of assay [6] is PA OU19. Nature of the assay: Checkerboard assay erythromycin + 600-Da BPEI, PA OU19. The assay is classed as cell-based, P. aeruginosa. The protocol: as §2
In assay [7] the test system is K. pneumoniae BAA-2146. Put plainly: Checkerboard assay, CRE K. pneumoniae BAA-2146 (NDM-1). Format: cell-based, Klebsiella pneumoniae. Conditions: NDM-1 strain; over the susceptibility breakpoint. The protocol: (§3) Checkerboard assays were used to determine the synergistic effect between PEG350-BPEI or 600 Da BPEI and antibiotics against drug resistant strains growing in cation-adjusted Mueller-Hinton broth (CAMHB). […] Cells were grown at 37° C. The change in OD600 (optical density at 600 nm) was measured and recorded after 24 hr of treatment. Each checkerboard trial was done in triplicate using sterile Greiner CellStar™ flat bottom polystyrene plates, catalog #655180.

In assay [8] the test system is E. coli BAA-2452. Nature of the assay: Checkerboard assay, CRE E. coli BAA-2452 (NDM-1). The assay is classed as cell-based, Escherichia coli. Conditions: NDM-1 strain; over the susceptibility breakpoint. As for the experimental part:
as §3

Assay [9] concerns K. pneumoniae BAA-1705(blaKPC+/blaNDM−). Put plainly: Checkerboard assay, CRE K. pneumoniae BAA-1705 (blaKPC+/blaNDM-). The following applies: FIGS. 11A and 11C. Format: cell-based, Klebsiella pneumoniae. As for the experimental part:
as §3

Assay [10] has as its system HEKa cells (primary human epithelial keratinocytes). Nature of the assay: Cytokine release (IL-8, IL-6, TNF-alpha) by HEKa cells, Quantikine ELISA. The assay is classed as cell-based. Conditions: PG or LPS 5 μg/mL, 24 hr; for TNF-α concentration released by HEKa cells: untreated control <10; for IL-6 concentration released by HEKa cells: untreated control <50. The protocol:
(§4) Materials included HEKa cells (primary human epithelial keratinocytes; Invitrogen), Epilife Medium and growth supplement (Invitrogen), lipopolysaccharides from Escherichia coli O111:B4 (Sigma), peptidoglycan from Staphylococcus aureus (Sigma), and Human (IL-8/CXCL8, IL-6, TNF-alpha) Quantikine ELISA Kits (R&D). HEKa cells were seeded in T-75 tissue culture flasks with Epilife media supplemented with human keratinocyte growth supplement 100 ug/mL and 100 U/mL of pen/strep and incubated at 37° C. in a CO2 incubator. Fresh media was replaced every 2 days. Until the cell confluence reach 80-90%, they were split into a new passage. To avoid cell senescence, all experiments were performed with cells at passage 3-7. HEKa cells were cultured in a new 24-well plate until 80-90% confluence (total V=1 mL/well). […] The cell media was collected in 1.5 mL Eppendorf microtubes and stored at −20° C. until ELISA assays were performed. Concentrations of IL-8, IL-6, TNF-α cytokines released into the media were quantified followed the instructions of Quantikine Colorimetric ELISA assay kits (R&D Systems). Absorbance was measured at 450 nm and 570 nm. Final corrected absorbance was the subtraction […].
as §4, with “HEKa” for “Materials included HEKa cells (primary human epithelial keratinocytes; Invitrogen), Epilife Medium and growth supplement (Invitrogen), lipopolysaccharides from Escherichia coli O111:B4 (Sigma), peptidoglycan from Staphylococcus aureus (Sigma), and Human (IL-8/CXCL8, IL-6, TNF-alpha) Quantikine ELISA Kits (R&D). HEKa”, “senescent,” for “senescence,”, “volume=1” for “V=1”, “IL-8 cytokine” for “IL-8, IL-6, TNF-α cytokines”

The subject of assay [11] is Pseudomonas aeruginosa strain BAA-47. Nature of the assay: Checkerboard assay azithromycin + 600-Da BPEI, P. aeruginosa BAA-47. The assay is classed as cell-based. As for the experimental part: as §2
Where [12] appears, read: Pseudomonas aeruginosa, read-out: MIC.
Setting [13] is: MRSA OU6, MicroScan, read-out: MIC.
Where [14] appears, read: MRSA OU11, MicroScan, read-out: MIC.
[15] abbreviates: MRSA OU6, erythromycin + 600-Da BPEI.
[16] abbreviates: MRSA OU11, erythromycin + 600-Da BPEI.
The mark [17] stands for this setting: PA OU19, erythromycin + 600-Da BPEI.

In brackets after ≈: the same amount, converted by molar mass. Like-named read-outs stand apart in the source and are kept apart here.

As a reminder, the MIC is the least concentration at which growth counts as inhibited. As for `CO/N=C(\C(=O)N[C@@H]1C(=O)N2C(C(=O)[O-])=C(C[N+]3(C)CCCC3)CS[C@H]12)c1csc(N)n1` [cefepime], the susceptibility interpretation result in assay [1] is reported as “resistant”. Also, in assay [1] (setting [12]), the MIC is 16 µg/mL (≈ 33.3 µM).
For `CC(C)(O/N=C(\C(=O)N[C@@H]1C(=O)N2C(C(=O)[O-])=C(C[n+]3ccccc3)CS[C@H]12)c1csc(N)n1)C(=O)O` [ceftazidime] the same measures were “resistant” and 16 µg/mL (≈ 29.3 µM).
As for `CC[C@H]1OC(=O)[C@H](C)[C@@H](O[C@H]2C[C@@](C)(OC)[C@@H](O)[C@H](C)O2)[C@H](C)[C@@H](O[C@@H]2O[C@H](C)C[C@H](N(C)C)[C@H]2O)[C@](C)(O)C[C@@H](C)C(=O)[C@H](C)[C@@H](O)[C@]1(C)O` [erythromycin], the susceptibility interpretation entry in assay [2] (MRSA OU6, MicroScan) is listed as “resistant”; in [3] (MRSA OU11, MicroScan), “resistant”. Further, the MIC in assay [2] (setting [13]) and in assay [3] (setting [14]) was above 4 µg/mL each time. Further, the “MIC Antibiotic” value in assay [4] was “over 2000 μg/mL”; in [4] (listed as Erythromycin), above 2000 µg/mL; in assay [5], “over 2000 μg/mL”; in assay [5] (listed as Erythromycin), above 2000 µg/mL. In addition, the FICI turned out to be 0.26 in [4] (setting [15]), 0.31 in assay [5] (setting [16]) and 0.26 in assay [6] (setting [17]). Further, the Outcome entry in assay [4] (setting [15]), in [5] (setting [16]) and in [6] (setting [17]) was “Synergy” in each case. Also, the “MIC Antibiotic with 16 μg/ml BPEI” value in assay [4] (MRSA OU6, with 16 μg/ml 600-Da BPEI) was determined as 8 µg/mL; in assay [6] (PA OU19, with 16 μg/ml 600-Da BPEI) it was 2 µg/mL.
Turning to `NC[C@H]1O[C@H](O[C@H]2[C@H](O)[C@@H](O[C@H]3O[C@H](CO)[C@@H](O)[C@H](N)[C@H]3O)[C@H](N)C[C@@H]2N)[C@H](N)C[C@@H]1O` [tobramycin], in assay [1], the susceptibility interpretation result was “susceptible”. The minimal inhibitory concentration (MIC) in assay [1] (setting [12]) was found to be 4 µg/mL (≈ 8.56 µM).
In the case of `C[C@@H](O)[C@H]1C(=O)N2C(C(=O)O)=C(S[C@@H]3CN[C@H](C(=O)N(C)C)C3)[C@H](C)[C@H]12` [meropenem], the “MIC of the carbapenem without potentiator” value in assay [7] and in assay [8] was above 8 µg/mL each time. Further, the “susceptibility of the strain to the carbapenem” value in [9] is “resistant”. The susceptibility interpretation result in assay [1] is given as “resistant”. Besides, in [1] (setting [12]), the MIC was 8 µg/mL (≈ 20.9 µM).
As to peptidoglycan [PG], in assay [10], the “TNF-α concentration released by HEKa cells” value is on record as around 30 pg/mL and the “IL-6 concentration released by HEKa cells” value is reported as around 350 pg/mL.
As to `C[C@@H](O)[C@H]1C(=O)N2C(C(=O)O)=C(SCCN=CN)C[C@H]12` [imipenem], the “MIC of the carbapenem without potentiator” value in assay [7] and in assay [8] was above 2 µg/mL each time.
Regarding `CCC[C@@H]1C[C@@H](C(=O)N[C@@H]([C@H]2O[C@H](SC)[C@H](O)[C@@H](O)[C@H]2O)[C@H](C)Cl)N(C)C1` [clindamycin], the MIC in assay [2] (setting [13]) and in assay [3] (setting [14]) was above 4 µg/mL throughout.
Turning to `CC(=O)NC[C@H]1CN(c2ccc(N3CCOCC3)c(F)c2)C(=O)O1` [linezolid], the susceptibility interpretation entry is listed as “susceptible” in assay [2] (MRSA OU6, MicroScan) and “susceptible” in assay [3] (MRSA OU11, MicroScan). In addition, the minimal inhibitory concentration (MIC) in assay [2] (setting [13]) and in assay [3] (setting [14]) was 2 µg/mL (≈ 5.93 µM) each time.
Consider `CCCCCCCCCC(=O)N[C@@H](Cc1c[nH]c2ccccc12)C(=O)N[C@H](CC(N)=O)C(=O)N[C@@H](CC(=O)O)C(=O)N[C@@H]1C(=O)NCC(=O)N[C@@H](CCCN)C(=O)N[C@@H](CC(=O)O)C(=O)N[C@H](C)C(=O)N[C@@H](CC(=O)O)C(=O)NCC(=O)N[C@H](CO)C(=O)N[C@@H]([C@H](C)CC(=O)O)C(=O)N[C@@H](CC(=O)c2ccccc2N)C(=O)O[C@@H]1C` [daptomycin], for which the susceptibility interpretation entry in assay [2] (MRSA OU6, MicroScan) is reported as “susceptible”; in [3] (MRSA OU11, MicroScan), “susceptible”. For the same compound, the MIC in [2] (setting [13]) and in assay [3] (setting [14]) was at most 0.5 µg/mL in each case.
In the case of `CN(C)[C@@H]1C(O)=C(C(N)=O)C(=O)[C@@]2(O)C(O)=C3C(=O)c4c(O)cccc4[C@@](C)(O)[C@H]3C[C@@H]12` [tetracycline], the minimal inhibitory concentration (MIC) in [2] (setting [13]) and in [3] (setting [14]) was at most 4 µg/mL throughout.
For lipopolysaccharide [LPS], in assay [10], the “TNF-α concentration released by HEKa cells” value is given as around 30 pg/mL and the “IL-6 concentration released by HEKa cells” value is listed as around 350 pg/mL.
For gentamicin, the susceptibility interpretation entry is given as “susceptible” in assay [2] (MRSA OU6, MicroScan); “susceptible” in [3] (MRSA OU11, MicroScan); “susceptible” in assay [1]. In addition, the MIC in assay [1] was 4 µg/mL.
In the case of `C[C@H]1[C@H](NC(=O)/C(=N\OC(C)(C)C(=O)O)c2csc(N)n2)C(=O)N1S(=O)(=O)O` [aztreonam], the susceptibility interpretation result in assay [1] is “resistant”. Further, the MIC in [1] (setting [12]) stood at 16 µg/mL (≈ 36.7 µM).
On to `Cc1onc(-c2ccccc2)c1C(=O)N[C@@H]1C(=O)N2[C@@H]1SC(C)(C)[C@@H]2C(=O)O` [oxacillin], for which the susceptibility interpretation result in assay [2] (MRSA OU6, MicroScan) is “resistant”; in assay [3] (MRSA OU11, MicroScan), “resistant”. The MIC in [2] (setting [13]) and in assay [3] (setting [14]) was above 2 µg/mL each time.
For the compound `CC[C@H]1OC(=O)[C@H](C)[C@@H](O[C@H]2C[C@@](C)(OC)[C@@H](O)[C@H](C)O2)[C@H](C)[C@@H](O[C@@H]2O[C@H](C)C[C@H](N(C)C)[C@H]2O)[C@](C)(O)C[C@@H](C)CN(C)[C@H](C)[C@@H](O)[C@]1(C)O` [azithromycin], the “growth inhibition by the combination with 600-Da BPEI” value in assay [11] is on record as “inhibits growth”.
Regarding `CN[C@H](CC(C)C)C(=O)N[C@H]1C(=O)N[C@@H](CC(N)=O)C(=O)N[C@H]2C(=O)N[C@H]3C(=O)N[C@H](C(=O)N[C@H](C(=O)O)c4cc(O)cc(O)c4-c4cc3ccc4O)[C@H](O)c3ccc(c(Cl)c3)Oc3cc2cc(c3O[C@@H]2O[C@H](CO)[C@@H](O)[C@H](O)[C@H]2O[C@H]2C[C@](C)(N)[C@H](O)[C@H](C)O2)Oc2ccc(cc2Cl)[C@H]1O` [vancomycin], the susceptibility interpretation entry in [2] (MRSA OU6, MicroScan) was “susceptible”; in assay [3] (MRSA OU11, MicroScan) it was “susceptible”. The MIC is 2 µg/mL (≈ 1.38 µM) in assay [2] (MRSA) and 1 µg/mL (≈ 0.69 µM) in assay [3] (MRSA).
